Results published in patent US4774330A, “Cephalosporin intermediates” (Hoffmann-La Roche Inc., priority 1980, dated 1988).
Counter-ions that a name gives are not always drawn. Like-named read-outs stand apart in the source and are kept apart here.

Tests used:
Klebsiella pneumoniae = experiment: MIC in vitro, Klebsiella pneumoniae; assay type: cell-based
Description: (§1) The following products were tested:
(§2) The following results relate to the minimum inhibitory concentration (MIC) in vitro (μg/ml): […]

Proteus rettgeri = experiment: MIC in vitro, Proteus rettgeri; assay type: cell-based; conditions: Providencia rettgeri
Description: as §1, §2

Streptococcus pyogenes [1] = experiment: s.c. treatment of mice before i.p. infection, Streptococcus pyogenes; assay type: in vivo; conditions: sc, 5 hours before i.p. infection
Description: (§3) The long retention of the products in accordance with the invention in the organism is also evident after the s.c. treatment of mice with product A or C 5 hours before a i.p. infection with the microorganism to be tested, the following Ed50 values being ascertained: […]

[2] = system: Staphylococcus epidermidis; experiment: MIC in vitro, Staphylococcus epidermidis; assay type: cell-based
Description: as §1, §2

Pseudomonas aeruginosa = experiment: MIC in vitro, Pseudomonas aeruginosa; assay type: cell-based
Description: as §1, §2

Haemophilus influenzae = experiment: MIC in vitro, Haemophilus influenzae; assay type: cell-based
Description: as §1, §2

Enterobacter cloacae = experiment: MIC in vitro, Enterobacter cloacae; assay type: cell-based
Description: as §1, §2

Proteus inconstans = experiment: MIC in vitro, Proteus inconstans; assay type: cell-based; conditions: Providencia alcalifaciens
Description: as §1, §2

Serratia marcescens [3] = experiment: MIC in vitro, Serratia marcescens; assay type: cell-based
Description: as §1, §2

Proteus morganii = experiment: MIC in vitro, Proteus morganii; assay type: cell-based; conditions: Morganella morganii
Description: as §1, §2

Serratia marcescens [4] = experiment: s.c. treatment of mice before i.p. infection, Serratia marcescens; assay type: in vivo; conditions: sc, 5 hours before i.p. infection
Description: as §3

Enterobacter aerogenes = experiment: MIC in vitro, Enterobacter aerogenes; assay type: cell-based; conditions: Klebsiella aerogenes
Description: as §1, §2

[5] = toxicity, 24 hours values; assay type: in vivo; conditions: 24 hours value; for MTD at 24 h: in vivo, read-out: Tolerated dosage
Description: The compounds in accordance with the invention are non-toxic, as will be evident from the following data for the 24 hours values of products A and B: […]

Streptococcus viridans = experiment: MIC in vitro, Streptococcus viridans; assay type: cell-based
Description: as §1, §2

Staphylococcus aureus = experiment: MIC in vitro, Staphylococcus aureus; assay type: cell-based
Description: as §1, §2

Neisseria meningitidis = experiment: MIC in vitro, Neisseria meningitidis; assay type: cell-based
Description: as §1, §2

Streptococcus pneumoniae = experiment: MIC in vitro, Streptococcus pneumoniae; assay type: cell-based
Description: as §1, §2

Neisseria gonorrhoeae = experiment: MIC in vitro, Neisseria gonorrhoeae; assay type: cell-based
Description: as §1, §2

Citrobacter freundii = experiment: MIC in vitro, Citrobacter freundii; assay type: cell-based
Description: as §1, §2

Streptococcus faecalis = experiment: MIC in vitro, Streptococcus faecalis; assay type: cell-based; conditions: Enterococcus faecalis
Description: as §1, §2

Streptococcus pyogenes [6] = experiment: MIC in vitro, Streptococcus pyogenes; assay type: cell-based
Description: as §1, §2

Escherichia coli [7] = experiment: MIC in vitro, Escherichia coli; assay type: cell-based
Description: as §1, §2

[8] = half-life in vivo after i.v. administration; conditions: rat, plasma, iv; 20 mg i.v., rats
Excerpt: The compounds of formula I as well as the corresponding readily hydrolyzable esters, readily hydrolyzable ethers and salts and the hydrates of same have antibiotic, especially bactericidal, activity.

Proteus mirabilis = experiment: MIC in vitro, Proteus mirabilis; assay type: cell-based
Description: as §1, §2

Proteus vulgaris = experiment: MIC in vitro, Proteus vulgaris; assay type: cell-based
Description: as §1, §2

Escherichia coli [9] = experiment: s.c. treatment of mice before i.p. infection, Escherichia coli; assay type: in vivo; conditions: sc, administered 24 hours before the infection
Description: The long retention of the products in accordance with the invention in the organism is also evident after the s.c. treatment of mice with product A or C 5 hours before a i.p. infection with the microorganism to be tested, the following Ed50 values being ascertained: | *Administered 24 hours before the infection.

SMILES: Cn1nc(O)c(=O)nc1SCC1=C(C(=O)O)N2C(=O)[C@@H](NC(=O)/C(=N\O)c3csc(N)n3)[C@H]2SC1 [Product A, (6R,7R)-7-[2-(2-Amino-4-thiazolyl)-2-(Z-hydroxyimino)acetamido]-3-/[(2,5-dihydro-6-hydroxy-2-methyl-5-oxo-as-triazin-3-yl)thio]methyl/-8-oxo-5-thia-1-azabicyclo[4.2.0]oct-2-ene-2-carboxylic acid disodium salt]
- MIC (Klebsiella pneumoniae; strain 1): 0.02 µg/mL
- MIC (Klebsiella pneumoniae; strain 2): 0.1 µg/mL
- MIC (Klebsiella pneumoniae; strain 3): 0.025 µg/mL
- MIC (Klebsiella pneumoniae; strain 4): 0.05 µg/mL
- MIC (Proteus rettgeri; strain 1): 0.63 µg/mL
- MIC (Proteus rettgeri; strain 2): 0.05 µg/mL
- ED50 (Streptococcus pyogenes [1]): 0.15 mg/kg
- MIC [2]: 1.6 µg/mL
- MIC (Pseudomonas aeruginosa; strain 1): > 80 µg/mL
- MIC (Pseudomonas aeruginosa; strain 2): > 80 µg/mL
- MIC (Pseudomonas aeruginosa; strain 3): 40 µg/mL
- MIC (Pseudomonas aeruginosa; strain 4): 80 µg/mL
- MIC (Pseudomonas aeruginosa; strain 5): > 80 µg/mL
- MIC (Pseudomonas aeruginosa; strain 6): 10 µg/mL
- MIC (Pseudomonas aeruginosa; strain 7): 5 µg/mL
- MIC (Pseudomonas aeruginosa; strain 8): 20 µg/mL
- MIC (Pseudomonas aeruginosa; strain 9): > 80 µg/mL
- MIC (Pseudomonas aeruginosa; strain 10): 10 µg/mL
- MIC (Pseudomonas aeruginosa; strain 11): 5 µg/mL
- MIC (Pseudomonas aeruginosa; strain 12): > 80 µg/mL
- MIC (Pseudomonas aeruginosa; strain 13): 80 µg/mL
- MIC (Pseudomonas aeruginosa; strain 14): > 80 µg/mL
- MIC (Pseudomonas aeruginosa; strain 15): 80 µg/mL
- MIC (Pseudomonas aeruginosa; strain 16): > 80 µg/mL
- MIC (Pseudomonas aeruginosa; strain 17): > 80 µg/mL
- MIC (Haemophilus influenzae; strain 1): 0.63 µg/mL
- MIC (Haemophilus influenzae; strain 2): 0.04 µg/mL
- MIC (Haemophilus influenzae; strain 3): 0.04 µg/mL
- MIC (Haemophilus influenzae; strain 4): 0.04 µg/mL
- MIC (Haemophilus influenzae; strain 5): 0.04 µg/mL
- MIC (Haemophilus influenzae; strain 6): 0.02 µg/mL
- MIC (Haemophilus influenzae; strain 7): 0.04 µg/mL
- MIC (Enterobacter cloacae; strain 1): 20 µg/mL
- MIC (Enterobacter cloacae; strain 2): > 80 µg/mL
- MIC (Enterobacter cloacae; strain 3): > 25 µg/mL
- MIC (Enterobacter cloacae; strain 4): 12.5 µg/mL
- MIC (Proteus inconstans; strain 1): 0.08 µg/mL
- MIC (Proteus inconstans; strain 2): 0.01 µg/mL
- MIC (Proteus inconstans; strain 3): ≤ 0.025 µg/mL
- MIC (Serratia marcescens [3]; strain 1): 0.16 µg/mL
- MIC (Serratia marcescens [3]; strain 2): 0.31 µg/mL
- MIC (Serratia marcescens [3]; strain 3): 0.31 µg/mL
- MIC (Serratia marcescens [3]; strain 4): 0.63 µg/mL
- MIC (Serratia marcescens [3]; strain 5): 0.31 µg/mL
- MIC (Serratia marcescens [3]; strain 6): 0.31 µg/mL
- MIC (Serratia marcescens [3]; strain 7): 0.31 µg/mL
- MIC (Serratia marcescens [3]; strain 8): 0.31 µg/mL
- MIC (Serratia marcescens [3]; strain 9): 0.16 µg/mL
- MIC (Serratia marcescens [3]; strain 10): 0.8 µg/mL
- MIC (Serratia marcescens [3]; strain 11): 6.3 µg/mL
- MIC (Serratia marcescens [3]; strain 12): 0.1 µg/mL
- MIC (Proteus morganii; strain 1): ≤ 0.04 µg/mL
- MIC (Proteus morganii; strain 2): 0.05 µg/mL
- ED50 (Serratia marcescens [4]): 0.89 mg/kg
- MIC (Enterobacter aerogenes; strain 1): 0.1 µg/mL
- MIC (Enterobacter aerogenes; strain 2): 0.8 µg/mL
- MTD at 24 h ([5]; intravenous): 500 mg/kg
- MTD at 24 h ([5]; oral): 5000 mg/kg
- Lethal dosage ([5]; intravenous): 1000 mg/kg
- Lethal dosage ([5]; oral): > 5000 mg/kg
- Lethal dosage ([5]; subcutaneous): > 4000 mg/kg
- MIC (Streptococcus viridans): 1.6 µg/mL
- MIC (Staphylococcus aureus; strain 1): 0.62 µg/mL
- MIC (Staphylococcus aureus; strain 2: β-lactamase producing): 1.2 µg/mL
- MIC (Staphylococcus aureus; strain 3): 1.6 µg/mL
- MIC (Staphylococcus aureus; strain 4): 1.6 µg/mL
- MIC (Staphylococcus aureus; strain 5): 1.6 µg/mL
- MIC (Staphylococcus aureus; strain 6): 3.1 µg/mL
- MIC (Neisseria meningitidis; strain 1): 0.0025 µg/mL
- MIC (Neisseria meningitidis; strain 2): 0.0025 µg/mL
- MIC (Neisseria meningitidis; strain 3): 0.0025 µg/mL
- MIC (Neisseria meningitidis; strain 4): 0.0012 µg/mL
- MIC (Streptococcus pneumoniae): 0.4 µg/mL
- MIC (Neisseria gonorrhoeae; strain 1): 0.0012 µg/mL
- MIC (Neisseria gonorrhoeae; strain 2): 0.0012 µg/mL
- MIC (Neisseria gonorrhoeae; strain 3): 0.02 µg/mL
- MIC (Neisseria gonorrhoeae; strain 4): 0.01 µg/mL
- MIC (Neisseria gonorrhoeae; strain 5): 0.04 µg/mL
- MIC (Neisseria gonorrhoeae; strain 6): 0.0006 µg/mL
- MIC (Citrobacter freundii; strain 1): 80 µg/mL
- MIC (Citrobacter freundii; strain 2): 6.3 µg/mL
- MIC (Citrobacter freundii; strain 3): 0.2 µg/mL
- MIC (Streptococcus faecalis; strain 1): 25 µg/mL
- MIC (Streptococcus faecalis; strain 2): > 25 µg/mL
- MIC (Streptococcus pyogenes [6]; strain 1): 0.1 µg/mL
- MIC (Streptococcus pyogenes [6]; strain 2): 0.05 µg/mL
- MIC (Escherichia coli [7]; strain 1): 1.2 µg/mL
- MIC (Escherichia coli [7]; strain 2): 1.2 µg/mL
- MIC (Escherichia coli [7]; strain 3): 2.5 µg/mL
- MIC (Escherichia coli [7]; strain 4): 0.31 µg/mL
- MIC (Escherichia coli [7]; strain 5): 0.4 µg/mL
- MIC (Escherichia coli [7]; strain 6): 0.2 µg/mL
- MIC (Escherichia coli [7]; strain 7): 0.025 µg/mL
- MIC (Escherichia coli [7]; strain 8): 0.05 µg/mL
- half-life [8]: 2.33 h
- MIC (Proteus mirabilis; strain 1): 0.02 µg/mL
- MIC (Proteus mirabilis; strain 2): 0.025 µg/mL
- MIC (Proteus mirabilis; strain 3): 0.05 µg/mL
- MIC (Proteus mirabilis; strain 4): 0.025 µg/mL
- MIC (Proteus vulgaris; strain 1): 0.31 µg/mL
- MIC (Proteus vulgaris; strain 2): 0.31 µg/mL
- MIC (Proteus vulgaris; strain 3): 0.63 µg/mL
- MIC (Proteus vulgaris; strain 4): 3.1 µg/mL
- MIC (Proteus vulgaris; strain 5): 0.1 µg/mL
- MIC (Proteus vulgaris; strain 6): 0.05 µg/mL

SMILES: Cn1nc(OCOC(=O)C(C)(C)C)c(=O)nc1SCC1=C(C(=O)OCOC(=O)C(C)(C)C)N2C(=O)[C@@H](NC(=O)/C(=N\O)c3csc(N)n3)[C@H]2SC1 [Product C, Methylene-(6R,7R)-7-[2-(2-amino-4-thiazolyl)-2-(Z-hydroxyimino)acetamido]-3-[[[2,5-dihydro-2-methyl-5-oxo-6-[(pivaloyloxy)methoxy]-as-triazin-3-yl]thio]methyl]-8-oxo-5-thia-1-azabicyclo[4.2.0]-oct-2-ene-2-carboxylate pivalate]
- ED50 (Streptococcus pyogenes [1]): 0.45 mg/kg
- ED50 (Escherichia coli [9]): 5.6 mg/kg
